According to PubChem BioAssay AID463199 (Broad Institute, 2010):
Active and inactive are the calls of the source.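 How the source made its calls: active means AC50, the dose giving half-maximal effect, exceeds a fixed cutoff for a compound that rescues yeast growth under heat; inactive means the rest, inconclusive results apart.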

system: S. cerevisiae Burl-1 ts mutant growth, BacTiter-Glo, 38.5C 24 h; assay: growth induction of Burl-1 ts yeast mutant, dose response, counter-screen for SUMOylation pathway inhibitor project, whole organism, S. cerevisiae, luminescence (AID 463199)

Structure (SMILES)	AC50
CC(Oc1ccccc1[N+](=O)[O-])C(=O)N/N=C/c1ccoc1 (stereo unspecified)	> 42 µM (inactive)
Cc1sc2ncnc(Nc3ccccc3)c2c1C	> 42 µM (inactive)
CC1=C(C(=O)Nc2ccccc2)C(c2ccccc2[N+](=O)[O-])NC(=O)N1 (stereo unspecified)	> 42 µM (inactive)
CNS(=O)(=O)c1cccc(C(=O)NCC2(N3CCCCC3)CCCCC2)c1	> 42 µM (inactive)
Cc1cc(C)n2c(SCC(C)C)nnc2n1	> 42 µM (inactive)
CCC(=O)Nc1ccc(S(=O)(=O)NCc2ccco2)cc1	> 42 µM (inactive)
Cc1ccc(S(=O)(=O)N2c3ccc(S(N)(=O)=O)cc3CC2C)cc1 (stereo unspecified)	> 42 µM (inactive)
Cc1nc2ccc(NC(=O)c3ccco3)cc2s1	> 42 µM (inactive)
COc1ccc(-n2nc(C(=O)NCC(=O)N3CCCC3)c3ccccc3c2=O)c(OC)c1	> 42 µM (inactive)
Cc1cc(C)cc(N2C(=O)CC(Sc3ncn[nH]3)C2=O)c1 (stereo unspecified)	> 42 µM (inactive)
Clc1ccc(N=c2ssnc2Cl)nc1	> 42 µM (inactive)
N#CC(C#N)=C1C=CC=CN1/C(=C\c1ccccc1Cl)C(=O)c1ccccc1	> 42 µM (inactive)
O=S(=O)(c1ccc(S(=O)(=O)N2CCCC2)cc1)N1CCCCC1	> 42 µM (inactive)
Cc1cc(Nc2nc3c(c(=O)n(C)c(=O)n3C)n2C)n(-c2ccc(Cl)cc2)n1	> 42 µM (inactive)
O=C(COc1ncnc2c(Cl)cc(Cl)cc12)NCCC1=CCCCC1	> 42 µM (inactive)
Cc1ccc(NC(=O)COc2ccccc2C(=O)NCCN(C)C)cc1	> 42 µM (inactive)
CCCOc1ccc(C(=O)NCc2ccco2)cc1	> 42 µM (inactive)
O=C(CCC(F)(F)F)N1CCCC(CO)(CCc2ccccc2)C1 (stereo unspecified)	> 42 µM (inactive)
COc1ccc(C(=O)CSc2nnc3ccc(-c4ccccn4)nn23)cc1	> 42 µM (inactive)
Cc1ccc(S(=O)(=O)Nc2n[nH]nc2C(=O)NC2CCCCC2)cc1	> 42 µM (inactive)
CCc1c(C)nc(N2CCN(Cc3ccccc3)CC2)[nH]c1=O	> 42 µM (inactive)
CN(C)c1ccnc2sc3c(NCC(O)CO)ncnc3c12 (stereo unspecified)	> 42 µM (inactive)
C=CCn1c(=N)c(C(=O)NCCCOC)cc2c(=O)n3ccccc3nc21	> 42 µM (inactive)
CCOc1ccc(N(C(C)C(=O)NC(C)CC)S(C)(=O)=O)cc1 (stereo unspecified)	> 42 µM (inactive)
COc1ccc(/C=N\Nc2ccc([N+](=O)[O-])cc2)c(C(=O)O)c1OC	> 42 µM (inactive)
FC(F)(F)c1nnc(-c2ccccc2)nc1Oc1ccc(Cl)cc1Cl	> 42 µM (inactive)

Structure (SMILES)	AC50
CCOC(=O)C1CCCN(C(=O)c2cc(-c3ccc(F)cc3)nc3ccccc23)C1 (stereo unspecified)	> 42 µM (inactive)
CCOC(=O)N1CCN(c2nnnn2-c2ccccc2)CC1	> 42 µM (inactive)
O=C(c1cc(Cl)c(=O)n(Cc2ccc(Cl)cc2)c1)N1CCOCC1	> 42 µM (inactive)
O=C(Nc1ccc(Cl)cc1Cl)c1cccc(N2C(=O)C=CC2=O)c1	> 42 µM (inactive)
Cc1cc(=O)c(C(=O)O)cn1Nc1ccc(Cl)cc1	> 42 µM (inactive)
O=C(O)c1ccc(/C=N/NC(=O)c2cc(-c3ccc4c5c(cccc35)CC4)n[nH]2)cc1	> 42 µM (inactive)
O=C(CP(=O)(c1ccccc1)c1ccccc1)N1CCOCC1	> 42 µM (inactive)
CCc1ccc(S(=O)(=O)NCc2cccnc2)cc1	> 42 µM (inactive)
CC(C)C(=O)NNc1ccc(C(F)(F)F)cn1	> 42 µM (inactive)
Cc1c(O)ccc(C(=O)CN2C(=O)c3ccccc3C2=O)c1O	> 42 µM (inactive)
O=C(/C=C/c1ccc(F)cc1)NCC1(c2ccccc2)CCOCC1	> 42 µM (inactive)
CCOc1ccccc1Nc1nnc(SCc2nnc(-c3cc(OC)c(OC)c(OC)c3)o2)s1	> 42 µM (inactive)
Cc1nnc(SCC(=O)NCc2ccccc2Cl)[nH]c1=O	> 42 µM (inactive)
CCCNC(=O)CN(c1ccc(F)cc1)S(=O)(=O)c1ccc2c(c1)OCCO2	> 42 µM (inactive)
O=S(=O)(c1cccc(-c2nnco2)c1)N1CCCC1	> 42 µM (inactive)
Cc1ccc(Oc2ccc(OCC(=O)Nc3ccncc3)cc2)cc1	> 42 µM (inactive)
O=C(Nc1ccc(F)cc1)c1ccc(CSc2ccccc2)o1	> 42 µM (inactive)
COc1cc(/C=C(\C#N)C(=O)Nc2ccc(C(=O)O)cc2)ccc1OC(=O)c1cccc(F)c1	> 42 µM (inactive)
COc1cc(SC)ccc1C(=O)Nc1cc(C)c(OCC(=O)N2CCOCC2)c(C)c1	> 42 µM (inactive)
Cc1ccc(N(C(=O)CCl)C(C(=O)NC2CCCCC2)c2cccnc2)cc1C (stereo unspecified)	> 42 µM (inactive)
C=C(C)Cn1c(SCC(=O)N/N=C/c2ccccc2OCC(=O)O)nnc1-c1ccc(Br)cc1	> 42 µM (inactive)
C[C@@]12C(=O)Nc3ccc(F)cc3C(=O)N1[C@H]1c3cc(Cl)ccc3OC[C@@H]1[C@@H]2c1ccccc1	> 42 µM (inactive)
COc1cc(/C=N/n2cnnc2)ccc1OCc1ccccc1	> 42 µM (inactive)
CC(C)CNc1cc(=O)n(C)c(=O)n1C	> 42 µM (inactive)
CCNc1ccccc(C(=O)/C=C/c2ccc3c(c2)OCO3)c1=O	> 42 µM (inactive)
CC(C)CC(=O)Nc1ccc(C(=O)CN2C(=O)NC3(CCOc4ccccc43)C2=O)cc1 (stereo unspecified)	> 42 µM (inactive)

Structure (SMILES)	AC50
CCN(CC)/C(=N\S(=O)(=O)c1ccc(F)cc1)c1ccccc1	> 21 µM (inactive)
CC1(C)NC(=O)N(CC(=O)O)C1=O	> 42 µM (inactive)
Nc1ccc(C2(c3ccc(N)cc3)OC(=O)c3ccccc32)cc1	> 42 µM (inactive)
CCn1c(SCc2nc3ccccc3s2)nnc1-c1ccccc1	> 42 µM (inactive)
C/C(CC(=O)Nc1cccnc1)=N\NC(=O)C(C)Oc1ccc(Cl)cc1Cl (stereo unspecified)	> 42 µM (inactive)
CCn1c(SCC(=O)NC2CCCCC2)nnc1C(C)NC(=O)c1ccccc1F (stereo unspecified)	> 42 µM (inactive)
CC1(C)CCc2cc(CN3CCN(c4ccccn4)CC3)ccc2O1	> 42 µM (inactive)
CC(C)C(=O)Nc1ccc(-c2nc3cccnc3o2)cc1	> 42 µM (inactive)
O=C(CSc1nc(=O)n2ccccc2n1)N1CCN(c2ccccc2)CC1	> 42 µM (inactive)
CC(=O)Nc1cccc(OCC(=O)NS(=O)(=O)c2ccc(C)cc2)c1	> 42 µM (inactive)
COCCn1c(SCC(=O)NCc2cccs2)nnc1-c1ccc(OC)cc1	> 42 µM (inactive)
CCn1cc(C(=O)N(C)c2ccc(OC)cc2OC)c2cc(OC)c(OC)cc2c1=O	> 42 µM (inactive)
O=S1(=O)NC(c2ccccc2)CC(CC2CCCCC2)O1 (stereo unspecified)	> 42 µM (inactive)
Cc1ccc(S(=O)(=O)CCC(=O)OCC(=O)N(C)C2CCS(=O)(=O)C2)cc1 (stereo unspecified)	> 42 µM (inactive)
OC[C@@H](O)CCl	> 42 µM (inactive)
COC(=O)c1cn(C(=O)c2cccc3ccccc23)c2ccccc12	> 42 µM (inactive)
CN(c1cccnc1)c1ncnc2[nH]ncc12	> 42 µM (inactive)
CCOC(=O)C1CCN(CC(O)COCc2ccccc2)CC1 (stereo unspecified)	> 42 µM (inactive)
O=C(Nc1ccc2[nH]c(=O)[nH]c2c1)c1c(F)c(F)c(F)c(F)c1F	25.8 µM
COc1ccc(C(=O)NCCSc2ccc(C)cc2)cc1	> 42 µM (inactive)
COC(=O)C1(Cc2cc(-c3ccccc3)no2)CCN(C(=O)OC(C)(C)C)CC1	> 42 µM (inactive)
CCCC(O)(c1ccc(Br)cc1)C(CN1CCOCC1)c1ccc(Cl)cc1 (stereo unspecified)	> 42 µM (inactive)
Cc1cccc(N=Nc2ccc(N(C)C)cc2)c1	> 42 µM (inactive)
Cc1cc(C(=O)NN)n[nH]1	> 42 µM (inactive)
COC(=O)N/N=C/c1ccc(-c2ccc(Cl)cc2Cl)o1	> 42 µM (inactive)
OC1CN=C2CCCc3c2n(c2ccc(Cl)cc32)C1 (stereo unspecified)	> 42 µM (inactive)

Structure (SMILES)	AC50
O=S(=O)(Cc1ccccc1)N1CCN(c2ncccn2)CC1	> 42 µM (inactive)
CCc1ccc2nc(-c3cccc(C)c3)nc(SCC(=O)NCC3CCCO3)c2c1 (stereo unspecified)	> 42 µM (inactive)
COc1cccc(CN(C)C(=O)C2CCC(=O)N(Cc3cccc(F)c3)C2)c1 (stereo unspecified)	> 42 µM (inactive)
Cn1nc(C(C)(C)C)c([N+](=O)[O-])c1C(=O)Nc1ccccc1	> 42 µM (inactive)
CCCCCC(=O)NNC1=NCC(Cc2cccc(Cl)c2)S1 (stereo unspecified)	> 42 µM (inactive)
CCc1nnc(NC(=O)c2cccc(S(=O)(=O)N3CCN(c4ccccc4)CC3)c2)s1	> 42 µM (inactive)
CCN1C(=S)N[C@@H](CCc2ccccc2)C(C(=O)OC)=C1C	> 42 µM (inactive)
Cc1cc2ncc(C(=O)N=CN(C)C)cn2n1	> 42 µM (inactive)
Clc1ccc(CSc2nnc(CN3CCOCC3)n2-c2ccccc2)cc1Cl	> 42 µM (inactive)
C(=N\Nc1ccc2nncn2n1)/c1ccccn1	> 42 µM (inactive)
COc1ccc2c(c1)OC[C@H]1[C@H]2N2C(=O)c3cc(C)ccc3NC(=O)[C@@]2(C)[C@H]1c1ccccc1	> 42 µM (inactive)
CCN(C(=O)Cn1c(=O)oc2ccccc21)c1cccc(C)c1	> 42 µM (inactive)
CCN(C(=O)Cn1nc(C)c([N+](=O)[O-])c1C)c1c(N)n(Cc2ccccc2)c(=O)[nH]c1=O	> 42 µM (inactive)
Cc1ccc(Cn2c(NCCc3ccccc3)nc3c2c(=O)n(C)c(=O)n3C)cc1	> 42 µM (inactive)
COC(=O)c1c(C)cc(O)c(C=O)c1O	> 42 µM (inactive)
O=C(CSc1nc2ncccc2[nH]1)NC1CCCCC1	> 42 µM (inactive)
COC(=O)c1ccc2[nH]c(C(C)(C)O)c(C)c2c1	> 42 µM (inactive)
CCCOc1ccc([N+](=O)[O-])c(N)c1	> 42 µM (inactive)
COc1ccccc1C(=O)NCCNc1ccc([N+](=O)[O-])cc1Cl	> 42 µM (inactive)
O=C(COc1cnc2ccccc2n1)NCCC1=CCCCC1	> 42 µM (inactive)
CN(C#N)c1nc(Cl)nc(Nc2cccc(Cl)c2)n1	> 42 µM (inactive)
COc1ccc(C(=O)OCC(=O)c2ccccc2)cc1S(=O)(=O)N1CCOCC1	> 42 µM (inactive)
CC1=C(C)CS(=O)N(S(=O)(=O)c2ccc(Cl)cc2)C1 (stereo unspecified)	12.1 µM
